What all share (type): functional
Experiment [1] deals with Escherichia coli. Put plainly: Antimicrobial activity against Escherichia coli CSH-2 conjugant of strain 08-642.
The test system of experiment [2] is Escherichia coli. Put plainly: Antimicrobial activity against Escherichia coli CSH-2 conjugant of strain C316.
Experiment [3] relates to Escherichia coli. Description: Antimicrobial activity against beta-lactamase CTX-M-producing Escherichia coli isolate 03-271.
Experiment [4] has as its system Escherichia coli. Put plainly: Antimicrobial activity against beta-lactamase CTX-M-producing Escherichia coli isolate 05-690 harboring uhpA stop at amino acid at 144.
The test system of experiment [5] is Escherichia coli. Put plainly: Antimicrobial activity against streptomycin-, chloramphenicol-resistant pBCKS positive Escherichia coli DH10B transformant.
In experiment [6] the test system is Escherichia coli. Put plainly: Antimicrobial activity against Escherichia coli DH10B transformant containing Sac2 fragment with fosA3 gene from 08-607.
In experiment [7] the test system is Escherichia coli. Description: Antimicrobial activity against beta-lactamase CTX-M-producing Escherichia coli isolate 06-607.
Experiment [8] relates to Escherichia coli. Description: Antimicrobial activity against beta-lactamase CTX-M-producing Escherichia coli isolate 08-555 harboring glpT gene with 981[227-bp deletion]1209.
The test system of experiment [9] is Escherichia coli. Description: Antimicrobial activity against beta-lactamase CTX-M-producing Escherichia coli isolate 03-285.
Experiment [10] deals with Escherichia coli. Put plainly: Antimicrobial activity against beta-lactamase CTX-M-producing Escherichia coli isolate 08-642.
In experiment [11] the test system is Escherichia coli. Description: Antimicrobial activity against beta-lactamase CTX-M-producing Escherichia coli isolate 05-244 harboring glpT gene with 328[14-bp duplication]343, uhpT gene with 1173[96-bp deletion]1270.
For experiment [12], the system named is Escherichia coli. Put plainly: Antimicrobial activity against Escherichia coli CSH-2 conjugant of strain 08-607.
For experiment [13], the system named is Escherichia coli. Put plainly: Antimicrobial activity against Escherichia coli DH10B transformant containing Kpn1 fragment with fosA3 gene from 08-642.
Experiment [14] concerns Escherichia coli. Description: Antimicrobial activity against beta-lactamase CTX-M-producing Escherichia coli isolate 03-287 harboring glpT gene with 405[5-bp duplication]411.
For experiment [15], the system named is Escherichia coli. Put plainly: Antimicrobial activity against Escherichia coli DH10B transformant containing Sac2 fragment with fosC2 gene from pHPA.
For experiment [16], the system named is Escherichia coli. Description: Antimicrobial activity against beta-lactamase CTX-M-producing Escherichia coli isolate C316.
Experiment [17] deals with Escherichia coli. Description: Antimicrobial activity against beta-lactamase CTX-M-producing Escherichia coli isolate 03-286 harboring glpT gene with 405[5-bp duplication]411.
The test system of experiment [18] is Escherichia coli. Description: Antimicrobial activity against rifampin-, nalidixic acid resistant Escherichia coli CSH-2.
In experiment [19] the test system is Escherichia coli. Put plainly: Antimicrobial activity against Escherichia coli DH10B transformant containing Kpn1 fragment with fosA3 gene from 08-642 by agar dilution method. (In agar dilution, organisms are placed on agar that contains the substance at set levels.)
The test system of experiment [20] is Escherichia coli. Put plainly: Antimicrobial activity against beta-lactamase CTX-M-producing Escherichia coli isolate 06-607 by agar dilution method.
For experiment [21], the system named is Escherichia coli. Put plainly: Antimicrobial activity against beta-lactamase CTX-M-producing Escherichia coli isolate 05-244 harboring glpT gene with 328[14-bp duplication]343, uhpT gene with 1173[96-bp deletion]1270 by agar dilution method.
The test system of experiment [22] is Escherichia coli. Put plainly: Antimicrobial activity against Escherichia coli CSH-2 conjugant of strain C316 by agar dilution method.
Experiment [23] has as its system Escherichia coli. Description: Antimicrobial activity against beta-lactamase CTX-M-producing Escherichia coli isolate 03-271 by agar dilution method.
Experiment [24] relates to Escherichia coli. Put plainly: Antimicrobial activity against rifampin-, nalidixic acid resistant Escherichia coli CSH-2 by agar dilution method.
Experiment [25] relates to Escherichia coli. Put plainly: Antimicrobial activity against Escherichia coli CSH-2 conjugant of strain 08-642 by agar dilution method.
Experiment [26] deals with Escherichia coli. Put plainly: Antimicrobial activity against streptomycin-, chloramphenicol-resistant pBCKS positive Escherichia coli DH10B transformant by agar dilution method.
Experiment [27] has as its system Escherichia coli. Description: Antimicrobial activity against Escherichia coli CSH-2 conjugant of strain 08-607 by agar dilution method.
The subject of experiment [28] is Escherichia coli. Put plainly: Antimicrobial activity against beta-lactamase CTX-M-producing Escherichia coli isolate 08-555 harboring glpT gene with 981[227-bp deletion]1209 by agar dilution method.
Experiment [29] has as its system Escherichia coli. Put plainly: Antimicrobial activity against beta-lactamase CTX-M-producing Escherichia coli isolate C316 by agar dilution method.
Experiment [30] deals with Escherichia coli. Description: Antimicrobial activity against Escherichia coli DH10B transformant containing Sac2 fragment with fosA3 gene from 08-607 by agar dilution method.
The test system of experiment [31] is Escherichia coli. Put plainly: Antimicrobial activity against beta-lactamase CTX-M-producing Escherichia coli isolate 08-642 by agar dilution method.
The test system of experiment [32] is Escherichia coli. Put plainly: Antimicrobial activity against beta-lactamase CTX-M-producing Escherichia coli isolate 05-690 harboring uhpA stop codon at amino acid at 144 by agar dilution method.
Experiment [33] deals with Escherichia coli. Description: Antimicrobial activity against beta-lactamase CTX-M-producing Escherichia coli isolate 03-286 harboring glpT gene with 405[5-bp duplication]411 by agar dilution method.
Experiment [34] deals with Escherichia coli. Put plainly: Antimicrobial activity against beta-lactamase CTX-M-producing Escherichia coli isolate 03-287 harboring glpT gene with 405[5-bp duplication]411 by agar dilution method.
Experiment [35] has as its system Escherichia coli. Description: Antimicrobial activity against beta-lactamase CTX-M-producing Escherichia coli isolate 03-285 by agar dilution method.
In experiment [36] the test system is Escherichia coli. Put plainly: Antimicrobial activity against Escherichia coli DH10B transformant containing Sac2 fragment with fosC2 gene from pHPA by agar dilution method.

Drawing on ChEMBL document CHEMBL1275596, “Prevalence of fosfomycin resistance among CTX-M-producing Escherichia coli clinical isolates in Japan and identification of novel plasmid-mediated fosfomycin-modifying enzymes” (2010), this text covers MIC for two molecules.

Converted amounts (≈) assume the structure as drawn.

For orientation: MIC means the smallest concentration in the dilution series that meets the test's criterion for growth inhibition. High values mean a need for much substance, low ones inhibition by little substance. Consider `CO/N=C(\C(=O)N[C@@H]1C(=O)N2C(C(=O)O)=C(COC(C)=O)CS[C@H]12)c1csc(N)n1` [CEFOTAXIME], for which the MIC was 128 µg/mL (≈ 281 µM) in the experiment on Escherichia coli [1]; 64 µg/mL (≈ 141 µM) against Escherichia coli [2]; 32 µg/mL (≈ 70.3 µM) against Escherichia coli [3]; 64 µg/mL (≈ 141 µM) against Escherichia coli [4]; not above 0.06 µg/mL in the experiment with Escherichia coli [5]; not above 0.06 µg/mL in the experiment with Escherichia coli [6]. Also, the minimum inhibitory concentration (MIC) against Escherichia coli [7] is 16 µg/mL (≈ 35.1 µM); in the experiment on Escherichia coli [8], more than 128 µg/mL; against Escherichia coli [9] it was more than 128 µg/mL; with Escherichia coli [10], 64 µg/mL (≈ 141 µM); in the experiment on Escherichia coli [11], more than 128 µg/mL; against Escherichia coli [12] it was 32 µg/mL (≈ 70.3 µM). In addition, the MIC with Escherichia coli [13] is not above 0.06 µg/mL; in the experiment with Escherichia coli [14], 128 µg/mL (≈ 281 µM); against Escherichia coli [15], not above 0.06 µg/mL; in the experiment on Escherichia coli [16] it was 128 µg/mL (≈ 281 µM); with Escherichia coli [17], more than 128 µg/mL; against Escherichia coli [18] it was not above 0.06 µg/mL.
For the molecule `C[C@@H]1O[C@@H]1P(=O)(O)O` [FOSFOMYCIN], the MIC was more than 256 µg/mL in the experiment with Escherichia coli [19]; more than 256 µg/mL against Escherichia coli [20]; 128 µg/mL (≈ 927 µM) in the experiment on Escherichia coli [21]; more than 256 µg/mL with Escherichia coli [22]; 64 µg/mL (≈ 464 µM) in the experiment on Escherichia coli [23]; 1 µg/mL (≈ 7.24 µM) in the experiment on Escherichia coli [24]. For the same molecule, the MIC with Escherichia coli [25] is more than 256 µg/mL; against Escherichia coli [26], 0.5 µg/mL (≈ 3.62 µM); in the experiment with Escherichia coli [27] it was more than 256 µg/mL; with Escherichia coli [28], more than 256 µg/mL; against Escherichia coli [29], 256 µg/mL (≈ 1850 µM); in the experiment on Escherichia coli [30], more than 256 µg/mL. Moreover, the MIC with Escherichia coli [31] was more than 256 µg/mL; against Escherichia coli [32], 64 µg/mL (≈ 464 µM); with Escherichia coli [33], 64 µg/mL (≈ 464 µM); against Escherichia coli [34] it was more than 256 µg/mL; in the experiment with Escherichia coli [35], 128 µg/mL (≈ 927 µM); against Escherichia coli [36], more than 256 µg/mL.
